In ChEMBL document CHEMBL1201862, “PubChem BioAssay data set” (2004):
Activity calls are given as the source filed them.

Legend:
[1] = biological target: Peroxisome proliferator-activated receptor gamma/Nuclear receptor coactivator 1 (Homo sapiens, UniProt P37231); assay: (§1) TR-FRET dose response biochemical High Throughput Screening assay for agonists of the steroid receptor coactivator 1 (SRC-1) recruitment by the peroxisome proliferator-activated receptor gamma (PPAR gamma): non-selective agonists. [Related pubchem assays (depositor defined):AID1300, AID1808, AID504735, AID631]; type: protein assay
[2] = biological target: Peroxisome proliferator-activated receptor gamma/Nuclear receptor coactivator 3 (Homo sapiens, UniProt P37231); assay: as §1, with “3 (SRC-3)” for “1 (SRC-1)”, “assays: 1301 (Confirmation screen.), 1048 (Primary screen.)]” for “assays (depositor defined):AID1300, AID1808, AID504735, AID631]”; type: functional
[3] = biological target: Peroxisome proliferator-activated receptor gamma/Nuclear receptor coactivator 2 (Homo sapiens, UniProt P37231); assay: TR-FRET dose response biochemical High Throughput Screening assay for agonists of the steroid receptor coactivator 2 (SRC-2) recruitment by the peroxisome proliferator-activated receptor gamma (PPAR gamma): non-selective agonists. [Related pubchem assays: 1297, 1032 ]; type: functional
[4] = biological target: Paired box protein Pax-8 (Homo sapiens, UniProt Q06710); assay: PAX8 transcriptional activity inhibition in RMG-I – RMG-I cells, luciferase, cherry-pick, dose response (AID 687027); type: functional, cell-based;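 also: luciferase reporter driven by Pax8 target thyroperoxidase promoter measured by SteadyGlo luminescence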
[5] = biological target: Nonstructural protein 1 (Influenza A virus, UniProt Q194T2); type: functional, Influenza A virus (A/California/07/2009(H1N1))
[6] = biological target: Heat shock protein HSP 90-alpha (Homo sapiens, UniProt P07900); type: functional, organism-based
[7] = biological target: T1, Hexokinase HKDC1 (Homo sapiens, UniProt Q2TB90); assay: activation of HKDC1 glucose phosphorylation – biochemical, W721R variant, dose response (AID 504730); type: functional
T1 sequence (Q2TB90 whole entry): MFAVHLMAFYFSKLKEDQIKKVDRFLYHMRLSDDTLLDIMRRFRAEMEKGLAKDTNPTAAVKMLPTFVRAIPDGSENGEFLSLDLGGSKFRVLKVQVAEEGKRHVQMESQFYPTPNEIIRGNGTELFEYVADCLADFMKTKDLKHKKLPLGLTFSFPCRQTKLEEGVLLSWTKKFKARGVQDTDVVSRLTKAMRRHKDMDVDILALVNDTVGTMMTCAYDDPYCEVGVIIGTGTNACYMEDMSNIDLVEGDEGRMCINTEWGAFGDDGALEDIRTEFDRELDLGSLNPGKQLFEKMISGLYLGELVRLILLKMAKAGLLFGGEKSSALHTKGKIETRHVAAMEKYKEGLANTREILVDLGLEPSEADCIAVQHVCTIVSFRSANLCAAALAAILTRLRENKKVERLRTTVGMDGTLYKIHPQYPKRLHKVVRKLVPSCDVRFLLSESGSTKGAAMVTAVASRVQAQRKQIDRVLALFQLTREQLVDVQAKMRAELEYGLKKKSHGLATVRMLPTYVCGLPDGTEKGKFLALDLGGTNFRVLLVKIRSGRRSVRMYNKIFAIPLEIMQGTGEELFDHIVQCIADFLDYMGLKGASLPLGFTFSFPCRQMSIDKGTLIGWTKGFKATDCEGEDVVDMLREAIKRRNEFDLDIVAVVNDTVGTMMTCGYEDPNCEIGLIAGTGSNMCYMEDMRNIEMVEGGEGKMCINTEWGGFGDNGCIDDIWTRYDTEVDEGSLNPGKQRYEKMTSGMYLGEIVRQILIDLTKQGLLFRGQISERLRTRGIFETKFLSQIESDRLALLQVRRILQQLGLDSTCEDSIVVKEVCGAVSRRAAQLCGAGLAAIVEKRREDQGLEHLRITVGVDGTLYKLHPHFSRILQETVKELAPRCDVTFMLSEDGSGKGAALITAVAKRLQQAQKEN

[8] = biological target: T2, Hexokinase-1 (Homo sapiens, UniProt P19367); assay: HK1 enzyme activation by HKDC1 hits – biochemical, selectivity assay for HKDC1 activator project, dose response (AID 504762); type: functional
T2 sequence (P19367 whole entry): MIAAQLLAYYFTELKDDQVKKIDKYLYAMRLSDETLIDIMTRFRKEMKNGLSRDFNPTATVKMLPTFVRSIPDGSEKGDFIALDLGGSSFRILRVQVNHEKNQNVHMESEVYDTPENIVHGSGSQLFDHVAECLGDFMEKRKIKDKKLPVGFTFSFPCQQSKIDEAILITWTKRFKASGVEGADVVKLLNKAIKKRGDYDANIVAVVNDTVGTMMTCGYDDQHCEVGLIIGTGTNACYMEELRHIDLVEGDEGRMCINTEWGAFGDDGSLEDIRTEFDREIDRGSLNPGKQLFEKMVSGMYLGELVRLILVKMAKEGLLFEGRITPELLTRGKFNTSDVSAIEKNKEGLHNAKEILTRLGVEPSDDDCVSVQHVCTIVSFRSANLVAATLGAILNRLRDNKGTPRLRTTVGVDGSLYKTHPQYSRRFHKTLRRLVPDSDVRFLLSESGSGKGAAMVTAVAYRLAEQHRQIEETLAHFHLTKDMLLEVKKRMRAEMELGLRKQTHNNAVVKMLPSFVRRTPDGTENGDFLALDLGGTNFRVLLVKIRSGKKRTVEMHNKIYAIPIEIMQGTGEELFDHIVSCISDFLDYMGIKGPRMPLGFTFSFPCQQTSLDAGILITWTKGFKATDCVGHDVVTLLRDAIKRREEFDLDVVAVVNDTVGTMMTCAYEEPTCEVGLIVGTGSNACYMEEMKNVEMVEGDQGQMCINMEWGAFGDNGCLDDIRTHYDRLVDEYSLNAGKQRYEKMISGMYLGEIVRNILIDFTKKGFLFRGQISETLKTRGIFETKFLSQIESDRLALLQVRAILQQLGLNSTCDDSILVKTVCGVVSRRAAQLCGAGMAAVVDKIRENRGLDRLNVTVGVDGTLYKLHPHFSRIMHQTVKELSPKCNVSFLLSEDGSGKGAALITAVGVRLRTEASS

Peroxisome proliferator-activated receptor gamma/Nuclear receptor coactivator 2, sequence (P37231 whole entry): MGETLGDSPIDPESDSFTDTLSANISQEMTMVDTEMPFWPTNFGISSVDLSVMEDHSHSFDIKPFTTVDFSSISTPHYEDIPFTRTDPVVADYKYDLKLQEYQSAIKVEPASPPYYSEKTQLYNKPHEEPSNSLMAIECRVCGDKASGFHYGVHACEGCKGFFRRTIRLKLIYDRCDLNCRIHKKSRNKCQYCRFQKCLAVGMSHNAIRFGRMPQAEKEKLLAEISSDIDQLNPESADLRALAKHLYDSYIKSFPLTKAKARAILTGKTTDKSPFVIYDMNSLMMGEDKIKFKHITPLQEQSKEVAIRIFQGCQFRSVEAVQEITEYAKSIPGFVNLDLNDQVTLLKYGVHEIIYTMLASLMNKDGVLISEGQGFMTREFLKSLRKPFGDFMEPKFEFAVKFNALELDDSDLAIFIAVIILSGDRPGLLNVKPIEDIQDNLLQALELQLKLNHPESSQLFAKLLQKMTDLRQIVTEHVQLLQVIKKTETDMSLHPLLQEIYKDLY
Peroxisome proliferator-activated receptor gamma/Nuclear receptor coactivator 2, sequence (Q15596 whole entry, further chain): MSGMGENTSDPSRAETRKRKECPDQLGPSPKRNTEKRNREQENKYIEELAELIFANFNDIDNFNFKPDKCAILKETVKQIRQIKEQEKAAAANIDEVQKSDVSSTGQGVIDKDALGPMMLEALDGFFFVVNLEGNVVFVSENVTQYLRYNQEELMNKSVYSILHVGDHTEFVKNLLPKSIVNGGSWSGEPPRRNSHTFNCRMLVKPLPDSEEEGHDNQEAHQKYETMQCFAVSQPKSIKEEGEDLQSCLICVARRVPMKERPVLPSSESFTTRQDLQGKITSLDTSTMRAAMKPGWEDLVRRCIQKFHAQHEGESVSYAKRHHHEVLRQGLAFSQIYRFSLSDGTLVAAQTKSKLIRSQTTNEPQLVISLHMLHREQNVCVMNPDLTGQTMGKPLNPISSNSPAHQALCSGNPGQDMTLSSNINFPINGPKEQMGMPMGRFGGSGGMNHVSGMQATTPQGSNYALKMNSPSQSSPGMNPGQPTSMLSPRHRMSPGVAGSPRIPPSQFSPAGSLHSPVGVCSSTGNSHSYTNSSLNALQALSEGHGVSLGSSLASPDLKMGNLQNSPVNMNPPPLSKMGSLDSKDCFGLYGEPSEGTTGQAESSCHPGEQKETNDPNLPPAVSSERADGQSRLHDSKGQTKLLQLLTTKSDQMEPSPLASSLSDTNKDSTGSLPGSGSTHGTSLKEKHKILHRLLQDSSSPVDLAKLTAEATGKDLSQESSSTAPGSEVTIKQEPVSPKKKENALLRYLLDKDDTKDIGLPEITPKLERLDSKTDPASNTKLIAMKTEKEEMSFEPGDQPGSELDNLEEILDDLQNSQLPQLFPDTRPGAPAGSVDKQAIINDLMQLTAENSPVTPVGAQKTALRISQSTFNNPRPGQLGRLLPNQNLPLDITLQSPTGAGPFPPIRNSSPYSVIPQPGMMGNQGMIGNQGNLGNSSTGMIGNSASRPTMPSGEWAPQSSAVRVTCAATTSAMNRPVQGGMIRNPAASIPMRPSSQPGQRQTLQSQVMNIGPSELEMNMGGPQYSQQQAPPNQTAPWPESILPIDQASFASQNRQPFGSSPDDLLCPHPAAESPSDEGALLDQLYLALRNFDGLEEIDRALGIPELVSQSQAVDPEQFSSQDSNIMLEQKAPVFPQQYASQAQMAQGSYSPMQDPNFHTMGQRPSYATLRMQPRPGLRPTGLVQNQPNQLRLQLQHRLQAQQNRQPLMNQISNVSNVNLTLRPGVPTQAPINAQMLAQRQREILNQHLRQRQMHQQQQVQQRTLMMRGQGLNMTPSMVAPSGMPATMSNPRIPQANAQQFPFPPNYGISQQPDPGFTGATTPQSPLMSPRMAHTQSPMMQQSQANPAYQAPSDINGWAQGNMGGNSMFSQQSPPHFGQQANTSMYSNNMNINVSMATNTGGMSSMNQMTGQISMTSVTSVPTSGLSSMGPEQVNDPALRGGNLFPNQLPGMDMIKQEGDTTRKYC
Peroxisome proliferator-activated receptor gamma/Nuclear receptor coactivator 3, sequence (P37231 whole entry): as the sequence (P37231 whole entry) above
Peroxisome proliferator-activated receptor gamma/Nuclear receptor coactivator 3, sequence (Q9Y6Q9 whole entry, further chain): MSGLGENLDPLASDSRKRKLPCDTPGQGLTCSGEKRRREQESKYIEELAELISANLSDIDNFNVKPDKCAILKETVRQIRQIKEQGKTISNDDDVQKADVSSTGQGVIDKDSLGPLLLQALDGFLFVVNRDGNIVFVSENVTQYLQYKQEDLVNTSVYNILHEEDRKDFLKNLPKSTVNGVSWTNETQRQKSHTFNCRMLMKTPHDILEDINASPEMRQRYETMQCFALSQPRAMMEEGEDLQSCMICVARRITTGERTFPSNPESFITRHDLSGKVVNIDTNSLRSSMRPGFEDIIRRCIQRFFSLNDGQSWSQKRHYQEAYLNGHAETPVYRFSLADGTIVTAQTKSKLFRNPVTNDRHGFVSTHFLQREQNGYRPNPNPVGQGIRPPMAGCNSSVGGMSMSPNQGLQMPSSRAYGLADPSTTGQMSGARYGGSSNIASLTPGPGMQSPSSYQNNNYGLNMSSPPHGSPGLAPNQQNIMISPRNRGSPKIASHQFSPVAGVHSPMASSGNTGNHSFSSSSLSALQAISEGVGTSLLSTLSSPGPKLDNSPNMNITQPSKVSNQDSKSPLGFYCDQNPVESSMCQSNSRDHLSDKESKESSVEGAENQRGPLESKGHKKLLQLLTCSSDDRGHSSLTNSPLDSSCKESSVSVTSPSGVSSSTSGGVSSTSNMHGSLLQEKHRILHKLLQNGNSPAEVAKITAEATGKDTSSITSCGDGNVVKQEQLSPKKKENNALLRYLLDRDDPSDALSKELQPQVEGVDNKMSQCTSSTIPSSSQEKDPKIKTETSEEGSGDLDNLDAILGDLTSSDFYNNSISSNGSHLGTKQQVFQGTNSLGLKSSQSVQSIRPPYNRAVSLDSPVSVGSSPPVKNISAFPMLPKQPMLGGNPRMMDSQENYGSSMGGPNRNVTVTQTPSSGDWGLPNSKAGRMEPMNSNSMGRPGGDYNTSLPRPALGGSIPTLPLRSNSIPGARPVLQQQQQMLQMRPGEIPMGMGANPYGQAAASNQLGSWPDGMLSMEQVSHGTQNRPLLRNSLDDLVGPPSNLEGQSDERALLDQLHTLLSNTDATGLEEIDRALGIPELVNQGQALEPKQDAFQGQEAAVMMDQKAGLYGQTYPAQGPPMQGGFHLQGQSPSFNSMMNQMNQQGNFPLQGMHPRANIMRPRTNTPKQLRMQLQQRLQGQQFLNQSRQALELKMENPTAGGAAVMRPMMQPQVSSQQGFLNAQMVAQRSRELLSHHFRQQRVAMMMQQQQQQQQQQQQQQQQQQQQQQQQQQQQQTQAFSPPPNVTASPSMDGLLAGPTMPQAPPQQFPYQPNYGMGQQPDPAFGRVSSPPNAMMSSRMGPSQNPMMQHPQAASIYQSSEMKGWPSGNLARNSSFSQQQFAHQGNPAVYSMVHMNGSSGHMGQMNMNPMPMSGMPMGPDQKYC
Paired box protein Pax-8, sequence (Q06710 whole entry): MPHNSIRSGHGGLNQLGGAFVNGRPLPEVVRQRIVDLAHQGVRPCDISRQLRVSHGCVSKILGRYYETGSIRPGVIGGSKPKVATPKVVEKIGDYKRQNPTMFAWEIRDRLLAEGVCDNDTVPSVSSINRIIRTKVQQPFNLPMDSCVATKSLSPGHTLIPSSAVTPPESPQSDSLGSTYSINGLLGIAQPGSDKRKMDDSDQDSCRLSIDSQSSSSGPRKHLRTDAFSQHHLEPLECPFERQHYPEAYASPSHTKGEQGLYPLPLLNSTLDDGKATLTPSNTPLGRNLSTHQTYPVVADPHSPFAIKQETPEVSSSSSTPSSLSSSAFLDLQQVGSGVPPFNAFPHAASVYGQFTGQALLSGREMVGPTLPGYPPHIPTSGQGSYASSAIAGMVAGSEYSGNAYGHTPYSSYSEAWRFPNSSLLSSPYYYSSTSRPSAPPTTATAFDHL
Nonstructural protein 1, sequence (Q194T2 whole entry): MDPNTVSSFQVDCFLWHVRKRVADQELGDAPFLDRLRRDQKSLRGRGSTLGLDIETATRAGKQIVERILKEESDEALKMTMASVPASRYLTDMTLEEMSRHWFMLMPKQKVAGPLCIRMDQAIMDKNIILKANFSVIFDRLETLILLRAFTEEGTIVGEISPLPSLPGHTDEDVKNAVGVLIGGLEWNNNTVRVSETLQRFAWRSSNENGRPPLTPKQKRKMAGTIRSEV

Fc1cccc(CSc2ncnc3c2oc2ccccc23)c1
EC50 [1]: 24.2 µM (inactive)
EC50 [2]: 85.8 µM (not active)
EC50 [3]: 14.3 µM (not active)

O=C(CSc1ccccc1)Nc1ccc(C(=O)Nc2ccc(O)cc2)cc1
EC50 [1]: 9.68 µM (active)
EC50 [2]: 58.3 µM (not active)
EC50 [3]: 8.24 µM (active)

CC(=NNC(=S)N1CCN(C2CCCCCC2)CC1)c1ccccn1
AC50 [4]: < 260 nM (active)
IC50 [5]: 1.66 µM (active)
AC50 [6]: 3.35 µM (active)
EC50 [7]: 8.14 µM (active)
EC50 [8]: > 80 µM (inactive)
